Our source for the EC50 and CC50 values is patent US20230013823A1, “INHIBITORS OF HUMAN IMMUNODEFICIENCY VIRUS REPLICATION” (VIV HEALTHCARE UK (No. 5) LIMITED, priority 2019, published 2023).

Read-outs that look alike come from different tables or passages of the source.

Holding throughout (format): cell-based
Data set [1] concerns recombinant NL4-3 virus (Renilla luciferase in nef). Put plainly: HIV cell culture assay (antiviral activity, luciferase readout in MT-2 cells). The essentials:
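MT-2 cells were infected for 4-5 days with 293T-derived recombinant NL4-3 reporter virus in the presence of serially diluted compound. Antiviral activity was quantified as luciferase activity using a live-cell substrate. EC50 was derived from the median effect equation.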

The test system of data set [2] is uninfected MT2 cells. Put plainly: Compound cytotoxicity, XTT-based colorimetric assay. The note with it: day 4, XTT. How it is done: (§1) Compound cytotoxicity and the corresponding CC50 values were determined using the same protocol as described in the antiviral assay except that uninfected cells were used. Cytotoxicity was assessed on day 4 in uninfected MT2 cells by using an XTT (2,3-bis[2-Methoxy-4-nitro-5-sulfophenyl]-2H-tetrazolium-5-carboxyanilide inner salt)-based colorimetric assay (Sigma-Aldrich, St Louis, Mo.).

Test in data set [3]: as above
The note with it: human; uninfected MT2 cells, day 4, XTT. How it is done: as §1

Setting [4] is: MT=2 cells infected for 4-5 days with the recombinant virus, luciferase activity, read-out: EC50.

`Cn1nc(NS(C)(=O)=O)c2c(Cl)ccc(-n3c([C@H](Cc4cc(F)cc(F)c4)NC(=O)Cn4nc(C(F)(F)F)c5c4C(F)(F)[C@@H]4C[C@H]54)nc4cc(-c5ccn(CC(F)(F)C(F)F)n5)ccc4c3=O)c21` [Example 59, N—((S)-1-((3P)-3-(4-chloro-1-methyl-3-(methylsulfonamido)-1H-indazol-7-yl)-4-oxo-7-(1-(2,2,3,3-tetrafluoropropyl)-1H-pyrazol-3-yl)-3,4-dihydroquinazolin-2-yl)-2-(3,5-difluorophenyl)ethyl)-2-((3bS,4aR)-5,5-difluoro-3-(trifluoromethyl)-3b,4,4a,5-tetrahydro-1H-cyclopropa[3,4]cyclopenta[1,2-c]pyrazol-1-yl)acetamide]: in data set [1] (setting [4]), the concentration for a half-maximal effect (EC50) came out at 0.11 nM. The CC50 in data set [2] is greater than 100 nM.

Take `CC(C(=O)NC(Cc1cc(F)cc(F)c1)c1nc2cc(-c3ccn(CC(C)(F)F)n3)ccc2c(=O)n1-c1ccc(Cl)c2c(NS(C)(=O)=O)nn(C)c12)n1ccc(C2CC2)n1` [Example 58, (S)—N—((S)-1-((3P)-3-(4-chloro-1-methyl-3-(methylsulfonamido)-1H-indazol-7-yl)-7-(1-(2,2-difluoropropyl)-1H-pyrazol-3-yl)-4-oxo-3,4-dihydroquinazolin-2-yl)-2-(3,5-difluorophenyl)ethyl)-2-(3-cyclopropyl-1H-pyrazol-1-yl)propanamide]: the EC50 in data set [1] (setting [4]) was 0.046 nM. Also, in data set [2], the half-maximal cytotoxic concentration (CC50) was greater than 100 nM.

On to `Cn1nc(NS(C)(=O)=O)c2c(Cl)ccc(-n3c([C@H](Cc4cc(F)cc(F)c4)NC(=O)Cn4nc(C(F)F)c5c4C(F)(F)[C@@H]4C[C@H]54)nc4cc(-c5cnn(CC(F)(F)F)c5)ccc4c3=O)c21` (atropisomer, axis not shown; (P)) [Example 41, N—((S)-1-((3P)-3-(4-chloro-1-methyl-3-(methylsulfonamido)-1H-indazol-7-yl)-4-oxo-7-(1-(2,2,2-trifluoroethyl)-1H-pyrazol-4-yl)-3,4-dihydroquinazolin-2-yl)-2-(3,5-difluorophenyl)ethyl)-2-((3bS,4aR)-3-(difluoromethyl)-5,5-difluoro-3b,4,4a,5-tetrahydro-1H-cyclopropa[3,4]cyclopenta[1,2-c]pyrazol-1-yl)acetamide], for which the half-maximal effective concentration (EC50) in data set [1] (Renilla, NL43) amounted to 0.097 nM. In data set [3], this compound yielded a CC50 at 4 days greater than 100 nM.

With `CCC(F)(F)Cn1ccc(-c2ccc3c(=O)n(-c4ccc(Cl)c5c(NS(C)(=O)=O)nn(C)c45)c([C@H](Cc4cc(F)cc(F)c4)NC(=O)Cn4nc(C(F)F)c5c4C(F)(F)[C@@H]4C[C@H]54)nc3c2)n1` (atropisomer, axis not shown; (P)) [Example 49, N—((S)-1-((3P)-3-(4-chloro-1-methyl-3-(methylsulfonamido)-1H-indazol-7-yl)-7-(1-(2,2-difluorobutyl)-1H-pyrazol-3-yl)-4-oxo-3,4-dihydroquinazolin-2-yl)-2-(3,5-difluorophenyl)ethyl)-2-((3bS,4aR)-3-(difluoromethyl)-5,5-difluoro-3b,4,4a,5-tetrahydro-1H-cyclopropa[3,4]cyclopenta[1,2-c]pyrazol-1-yl)acetamide], in data set [1] (Renilla, NL43), the half-maximal effective concentration (EC50) worked out at 0.081 nM. The 50% cytotoxic concentration (CC50) at 4 days in data set [3] is greater than 100 nM.

On to `Cn1nc(NS(C)(=O)=O)c2c(Cl)ccc(-n3c([C@H](Cc4cc(F)cc(F)c4)NC(=O)Cn4nc(C(F)F)c5c4C(F)(F)[C@@H]4C[C@H]54)nc4cc(-c5cc(C(C)(F)F)ccn5)ccc4c3=O)c21` (atropisomer, axis not shown; (P)) [Example 37, N—((S)-1-((3P)-3-(4-chloro-1-methyl-3-(methylsulfonamido)-1H-indazol-7-yl)-7-(4-(1,1-difluoroethyl)pyridin-2-yl)-4-oxo-3,4-dihydroquinazolin-2-yl)-2-(3,5-difluorophenyl)ethyl)-2-((3bS,4aR)-3-(difluoromethyl)-5,5-difluoro-3b,4,4a,5-tetrahydro-1H-cyclopropa[3,4]cyclopenta[1,2-c]pyrazol-1-yl)acetamide], for which, in data set [1] (Renilla, NL43), the EC50 is 0.33 nM. The same compound came in with a cytotoxic concentration (CC50) at 4 days in data set [3] greater than 100 nM.

Consider `Cn1nc(NS(C)(=O)=O)c2c(Cl)ccc(-n3c([C@H](Cc4cc(F)cc(F)c4)NC(=O)Cn4nc(C(F)F)c5c4C(F)(F)[C@@H]4C[C@H]54)nc4cc(-c5ccnc(S(C)(=O)=O)n5)ccc4c3=O)c21` (atropisomer, axis not shown; (P)) [Example 9, N—((S)-1-((3P)-3-(4-chloro-1-methyl-3-(methylsulfonamido)-1H-indazol-7-yl)-7-(2-(methylsulfonyl)pyrimidin-4-yl)-4-oxo-3,4-dihydroquinazolin-2-yl)-2-(3,5-difluorophenyl)ethyl)-2-((3bS,4aR)-3-(difluoromethyl)-5,5-difluoro-3b,4,4a,5-tetrahydro-1H-cyclopropa[3,4]cyclopenta[1,2-c]pyrazol-1-yl)acetamide], for which the EC50 in data set [1] (Renilla, NL43) is 0.15 nM. Besides, the CC50 at 4 days in data set [3] was greater than 500 nM.

For the compound `Cn1nc(NS(C)(=O)=O)c2c(Cl)ccc(-n3c([C@H](Cc4cc(F)cc(F)c4)NC(=O)Cn4nc(C(F)F)c5c4C(F)(F)[C@@H]4C[C@H]54)nc4cc(-c5cnn(CCF)c5)ccc4c3=O)c21` (atropisomer, axis not shown; (P)) [Example 42, N—((S)-1-((3P)-3-(4-chloro-1-methyl-3-(methylsulfonamido)-1H-indazol-7-yl)-7-(1-(2-fluoroethyl)-1H-pyrazol-4-yl)-4-oxo-3,4-dihydroquinazolin-2-yl)-2-(3,5-difluorophenyl)ethyl)-2-((3bS,4aR)-3-(difluoromethyl)-5,5-difluoro-3b,4,4a,5-tetrahydro-1H-cyclopropa[3,4]cyclopenta[1,2-c]pyrazol-1-yl)acetamide], in data set [1] (Renilla, NL43), the EC50 amounted to 0.068 nM. For the same compound, the CC50 at 4 days in data set [3] was greater than 100 nM.

Regarding `Cn1nc(NS(C)(=O)=O)c2c(Cl)ccc(-n3c([C@H](Cc4cc(F)cc(F)c4)NC(=O)Cn4nc(C(F)F)c5c4C(F)(F)[C@@H]4C[C@H]54)nc4cc(-c5cnn(CC(F)F)c5)ccc4c3=O)c21` (atropisomer, axis not shown; (P)) [Example 34, N—((S)-1-((3P)-3-(4-chloro-1-methyl-3-(methylsulfonamido)-1H-indazol-7-yl)-7-(1-(2,2-difluoroethyl)-1H-pyrazol-4-yl)-4-oxo-3,4-dihydroquinazolin-2-yl)-2-(3,5-difluorophenyl)ethyl)-2-((3bS,4aR)-3-(difluoromethyl)-5,5-difluoro-3b,4,4a,5-tetrahydro-1H-cyclopropa[3,4]cyclopenta[1,2-c]pyrazol-1-yl)acetamide], in data set [1] (Renilla, NL43), the EC50 was 0.054 nM. Also, the CC50 at 4 days in data set [3] was greater than 100 nM.

With `Cn1nc(NS(C)(=O)=O)c2c(Cl)ccc(-n3c([C@H](Cc4cc(F)cc(F)c4)NC(=O)Cn4nc(C(F)F)c5c4C(F)(F)[C@@H]4C[C@H]54)nc4cc(-c5ccn(CCOC(F)(F)F)n5)ccc4c3=O)c21` (atropisomer, axis not shown; (P)) [Example 54, N—((S)-1-((3P)-3-(4-chloro-1-methyl-3-(methylsulfonamido)-1H-indazol-7-yl)-4-oxo-7-(1-(2-(trifluoromethoxy)ethyl)-1H-pyrazol-3-yl)-3,4-dihydroquinazolin-2-yl)-2-(3,5-difluorophenyl)ethyl)-2-((3bS,4aR)-3-(difluoromethyl)-5,5-difluoro-3b,4,4a,5-tetrahydro-1H-cyclopropa[3,4]cyclopenta[1,2-c]pyrazol-1-yl)acetamide], the EC50 in data set [1] (Renilla, NL43) came out at 0.098 nM. In data set [3], this compound returned a CC50 at 4 days greater than 100 nM.
